Measured values as given in patent US20100216160A1, “METHOD FOR THE SCREENING […] ACTIVITY-MODULATING AGENTS AND MEANS FOR CARRYIING OUT SAID METHOD” (CYTOMICS SYSTEMS, priority 2005, published 2010).
Residues, ends and D or L forms follow the SMILES beside them. *: point of attachment. Cbz = O=C(OCc1ccccc1)*

Columns and labels:
Type in all cases: cell-based, Saccharomyces cerevisiae
[1] = test system: proteasome of the recombinant yeast cells (CYS344 strain, mAG-p21[6KR]^WAF1/Cip1 fusion protein); assay: Degradation of mAG-p21[6KR]WAF1/Cip1 fusion protein in CYS344 yeast cells, immunoblotting (Western blotting); settings: 50 μM MG132 added with 2% glucose after 120 minutes galactose, 30, 60 and 120 minutes after glucose
Description: (§1) The degradation of the fusion proteins comprising p21^WAF1/Cip1 or p21[6KR]^WAF1/Cip1 fused with mAG by the proteasome of the recombinant yeast cells of CYS 344 and CYS 343 strains was controlled by an immunoblotting technique, in the presence or in the absence of a proteasome inhibitor, the Mg132 compound.
(§2) All the yeast strains used were cultured and analyzed in a similar way.
(§3) The cells were cultured in minimal medium in the presence of galactose as a carbon source for 120 minutes.
(§4) At the end of these 120 minutes, 2% glucose was added to the culture, in the presence and in the absence of 50 μM of a known proteasome inhibitor, the Mg 132.
The results are given on FIG. 3 (FIG. 3A and FIG. 3B). FIG. 3A illustrates the results obtained with the CYS344 recombinant yeast strain.
Total proteins were prepared before adding galactose (0), 60 and 120 minutes following the addition of galactose (+galactose 0, 60, 120) and 30, 60 and 120 minutes (+glucose, 30, 60, 120) following the addition of glucose.
(§5) These proteins were analyzed by immunoblotting technique (“Western blotting”) using an antibody that recognized the p21^WAF1/Cip1 part of the fusion proteins (noted “mAG-p21^WAF1/Cip1” or “mAG-p21[6KR]^WAF1/Cip1” on FIG. 3).
(§6) The presence of MG132 in the culture is indicated by “+MG132” on FIG. 3. […]

[2] = test system: proteasome of the recombinant yeast cells (CYS343 strain, mAG-p21^WAF1/Cip1 fusion protein); assay: Degradation of mAG-p21WAF1/Cip1 fusion protein in CYS343 yeast cells, immunoblotting (Western blotting); settings: 50 μM MG132 added with 2% glucose after 120 minutes galactose, 30, 60, 120 and 150 minutes after glucose
Description: as §1, §2, §3, §4
FIG. 3B illustrates the results obtained with the CYS343 recombinant yeast strain. Total proteins were prepared before adding galactose (0), 60 and 120 minutes following the addition of galactose (+galactose 0, 60, 120) and 30, 60, 120 and 150 minutes (+glucose, 30, 60, 120, 150) following the addition of glucose.
as §5, §6

[3] = test system: proteasome of yeast cells (CYS344 strain, mAG-p21[6KR]^WAF1/Cip1 fusion protein); assay: Degradation of mAG-p21[6KR]WAF1/Cip1 fusion protein in CYS344 yeast cells, epifluorescence microscopy; settings: 50 μM MG132 added with 2% glucose after 120 minutes galactose, 0, 60, 120, 180 minutes after glucose
Description: The yeast cells of the CYS344 strain were cultured in minimal medium in the presence of galactose as a carbon source for 120 minutes.
(§7) At the end of these 120 minutes, 2% glucose was added to the culture, in the presence and in the absence of 50 μM of a known proteasome inhibitor, the MG132.
The cells were observed using an epifluorescence microscope (fluorescent microscope Nikon Eclipse fitted with an Omega XF116 filter). All the pictures were saved on a Hamamastu® camera using similar settings, then analyzed with the LUCIA G software, immediately before adding glucose (0 minute), and 60, 120 and 180 minutes (60, 120, 180 minutes) following the addition of glucose. The presence of MG132 in the culture is indicated by MG132″.

[4] = test system: proteasome of yeast cells (CYS343 strain, mAG-p21^WAF1/Cip1 fusion protein); assay: Flow cytometric quantification (FACS) of fluorescence of mAG-p21WAF1/Cip1 fusion protein in CYS343 yeast cells; settings: 50 μM MG132 added with 2% glucose after 120 minutes galactose, time D1h, D2h, D3h
Description: (§8) The yeast cells were cultured in the presence or in the absence of the MG132 proteasome inhibitor.
(§9) All the cells were cultured in minimal medium in the presence of galactose as a carbon source for 120 minutes.
as §7
(§10) The fluorescence emitted by the cells was quantified using a FacsCalibur flow cytometer (Beckton-Dickinson), immediately before adding galactose (I0), 1 and 2 hour(s) following the addition of galactose (I1 and I2) and 1, 2 and 3 hours (D1, D2 and D3) following the addition of glucose. The presence of Mg132 in the culture is indicated by “+MG132”. The fluorescence is expressed in arbitrary units.

[5] = test system: proteasome of yeast cells (CYS344 strain, mAG-p21[6KR]^WAF1/Cip1 fusion protein); assay: Flow cytometric quantification (FACS) of fluorescence of mAG-p21[6KR]WAF1/Cip1 fusion protein in CYS344 yeast cells; settings: 50 μM MG132 added with 2% glucose after 120 minutes galactose, time D1h, D2h, D3h
Description: as §8, §9, §7, §10

CC(C)C[C@@H](C=O)NC(=O)[C@H](CC(C)C)NC(=O)[C@H](CC(C)C)NC(=O)OCc1ccccc1 [MG132] (Cbz-Leu-Leu-Leu-aldehyde)
degradation of the mAG-p21[6KR]WAF1/Cip1 fusion protein (Western blotting) [1]: inhibit the degradation of the fusion protein | degradation of the mAG-p21[wt]WAF1/Cip1 fusion protein (Western blotting) [2]: inhibit the degradation of the fusion protein | fluorescence signal intensity of mAG-p21[6KR]WAF1/Cip1 fusion protein versus culture time (epifluorescence microscopy) [3]: fluorescence signal intensity versus culture time was maintained | degradation of the mAG-p21WAF1/Cip1 fusion protein (fluorescence, flow cytometry) [4]: strongly inhibited | degradation of the mAG-p21[6KR]WAF1/Cip1 fusion protein (fluorescence, flow cytometry) [5]: strongly inhibited
